This is an account of results in paper PMC12622015 (bioRxiv, 2025).

SMILES strings stand for the structures.

For the assay, the target named is T1, IRAK4 (Homo sapiens, UniProt Q9NWZ3).
T1 sequence (Q9NWZ3 1-460): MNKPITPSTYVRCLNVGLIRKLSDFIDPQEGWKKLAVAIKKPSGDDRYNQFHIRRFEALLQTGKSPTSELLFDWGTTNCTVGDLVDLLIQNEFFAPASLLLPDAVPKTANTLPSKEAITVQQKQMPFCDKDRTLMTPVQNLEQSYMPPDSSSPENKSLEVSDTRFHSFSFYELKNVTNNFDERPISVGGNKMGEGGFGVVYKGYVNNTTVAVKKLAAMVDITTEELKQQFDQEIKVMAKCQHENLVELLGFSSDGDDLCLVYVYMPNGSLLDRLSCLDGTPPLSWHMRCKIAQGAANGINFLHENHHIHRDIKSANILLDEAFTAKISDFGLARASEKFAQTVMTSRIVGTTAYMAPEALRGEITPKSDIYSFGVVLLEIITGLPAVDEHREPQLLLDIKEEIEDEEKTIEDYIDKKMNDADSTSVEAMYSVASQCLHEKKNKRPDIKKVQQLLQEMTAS
Kind of assay: HotSpot kinase assay. It counts as biochemical.

`COc1cc(N2CCN(C(=O)CCCC(=O)Nc3cccc4c3CN(C3CCC(=O)NC3=O)C4=O)CC2)ccc1NC(=O)c1cccc(-c2cc[nH]n2)n1` (stereo not shown) [PSP-0119, N-(4-(4-(5-((2-(2,6-dioxopiperidin-3-yl)-1-oxoisoindolin-4-yl)amino) −5-oxopentanoyl)piperazin-1-yl)-2-methoxyphenyl)-6-(1H-pyrazol-3-yl)picolinamide] came in with an IC50 of 2.83 nM.
